Compound in assay [1]: CC1(C)CC(=O)c2c(C(F)(F)F)nn(-c3ccc(C(N)=O)c(N[C@H]4CC[C@H](OC(=O)CN)CC4)c3)c2C1 [SNX-5422]
As to the kind of experiment: surviving fraction relative to DMSO-only wells; higher = less growth inhibition. The note with it: exposure time: 5 days. In short, it runs like this:
(§1)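 At 250–500 cells per well in 384-well plates, log-phase tumour cell lines were seeded and, 24 hours on, exposed continuously for five days to inhibitors at 0.5, 1, 5, 10, 50, 100, 500 and 1000 nM. Viability readout was CellTiter-Glo luminescence, reported as surviving fraction normalised to the median of DMSO-only wells.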

Compound in assay [2]: CNC(=O)c1ccc(N2C(=S)N(c3ccc(C#N)c(C(F)(F)F)c3)C(=O)C2(C)C)cc1F [MDV3100]
Described as above. The note with it: exposure time: 5 days. The method in brief:
as §1

These results are taken from the supplement of paper PMC6045584.

± gives the standard deviation of the averaged measurements.

For CHLA90 AUTONOMIC GANGLIA, the surviving fraction was found to be 0.995 ± 0.028 in assay [1] (0.5 nM); 1.07 ± 0.075 in assay [1] (1 nM); 1.04 ± 0.041 in assay [1] (5 nM); 1.026 ± 0.0046 in assay [1] (10 nM); 0.251 ± 0.028 in assay [1] (50 nM); 0.227 ± 0.029 in assay [1] (100 nM). Moreover, the surviving fraction was determined as 0.129 ± 0.0096 in assay [1] (500 nM); 0.141 ± 0.0081 in assay [1] (1000 nM); 0.946 ± 0.11 in assay [2] (0.5 nM); 0.812 ± 0.07 in assay [2] (1 nM); 0.878 ± 0.077 in assay [2] (5 nM); 0.362 ± 0.028 in assay [2] (10 nM). The surviving fraction in assay [2] (50 nM) was 1 ± 0.078; in assay [2] (100 nM), 0.94 ± 0.12; in assay [2] (500 nM), 1 ± 0.076; in assay [2] (1000 nM), 0.625 ± 0.14.

On to VP229 BREAST, for which the surviving fraction in assay [1] (0.5 nM) amounted to 1.286 ± 0.012; in assay [1] (1 nM), 1.15 ± 0.17; in assay [1] (5 nM), 1.12 ± 0.08; in assay [1] (10 nM), 1.03 ± 0.16; in assay [1] (50 nM), 0.612 ± 0.034; in assay [1] (100 nM) it was 0.628 ± 0.1. Also, the surviving fraction in assay [1] (500 nM) turned out to be 0.0873 ± 0.019; in assay [1] (1000 nM), 0.088 ± 0.011; in assay [2] (0.5 nM), 1.05 ± 0.052; in assay [2] (1 nM), 0.995 ± 0.089; in assay [2] (5 nM), 0.878 ± 0.095; in assay [2] (10 nM), 0.905 ± 0.13. Moreover, the surviving fraction in assay [2] (50 nM) came to 1 ± 0.12; in assay [2] (100 nM), 0.994 ± 0.055; in assay [2] (500 nM) it was 0.947 ± 0.07; in assay [2] (1000 nM), 0.806 ± 0.077.

Turning to NCIH441 LUNG, the surviving fraction in assay [1] (0.5 nM) amounted to 0.996 ± 0.029; in assay [1] (1 nM), 0.976 ± 0.036; in assay [1] (5 nM) it was 0.972 ± 0.076; in assay [1] (10 nM) it was 1.03 ± 0.062; in assay [1] (50 nM), 0.748 ± 0.093; in assay [1] (100 nM) it was 0.748 ± 0.062. In addition, the surviving fraction in assay [1] (500 nM) was 0.365 ± 0.04; in assay [1] (1000 nM), 0.324 ± 0.019; in assay [2] (0.5 nM), 1.02 ± 0.05; in assay [2] (1 nM), 1.04 ± 0.066; in assay [2] (5 nM), 1.03 ± 0.052; in assay [2] (10 nM), 1 ± 0.071. Besides, the surviving fraction was 1.05 ± 0.077 in assay [2] (50 nM), 0.924 ± 0.11 in assay [2] (100 nM), 0.956 ± 0.16 in assay [2] (500 nM) and 0.863 ± 0.11 in assay [2] (1000 nM).

For the test system SCC003 HEADNECK, the surviving fraction in assay [1] (0.5 nM) amounted to 1.16 ± 0.017; in assay [1] (1 nM), 1.15 ± 0.12; in assay [1] (5 nM), 1.16 ± 0.081; in assay [1] (10 nM) it was 1.13 ± 0.054; in assay [1] (50 nM), 0.608 ± 0.023; in assay [1] (100 nM), 0.384 ± 0.091. Further, the surviving fraction came out at 0.0973 ± 0.004 in assay [1] (500 nM); 0.0767 ± 0.0055 in assay [1] (1000 nM); 0.928 ± 0.12 in assay [2] (0.5 nM); 0.808 ± 0.069 in assay [2] (1 nM); 1 ± 0.049 in assay [2] (5 nM); 0.996 ± 0.051 in assay [2] (10 nM). The surviving fraction in assay [2] (50 nM) came to 1.06 ± 0.032; in assay [2] (100 nM) it was 1.02 ± 0.059; in assay [2] (500 nM), 1.02 ± 0.044; in assay [2] (1000 nM), 0.858 ± 0.098.

As to RDES SOFT TISSUE, the surviving fraction came out at 1.13 ± 0.087 in assay [1] (0.5 nM); 1.28 ± 0.15 in assay [1] (1 nM); 1.07 ± 0.039 in assay [1] (5 nM); 1.14 ± 0.19 in assay [1] (10 nM); 0.459 ± 0.056 in assay [1] (50 nM); 0.367 ± 0.053 in assay [1] (100 nM). The surviving fraction in assay [1] (500 nM) came out at 0.056 ± 0.0095; in assay [1] (1000 nM) it was 0.0543 ± 0.0085; in assay [2] (0.5 nM) it was 1.25 ± 0.1; in assay [2] (1 nM), 1.07 ± 0.035; in assay [2] (5 nM), 1.11 ± 0.064; in assay [2] (10 nM) it was 1.15 ± 0.11. The surviving fraction in assay [2] (50 nM) is 1.2 ± 0.086; in assay [2] (100 nM) it was 1.12 ± 0.21; in assay [2] (500 nM), 1.38 ± 0.074; in assay [2] (1000 nM), 1.25 ± 0.19.

With SUM159 BREAST, the surviving fraction is 1.11 ± 0.11 in assay [1] (0.5 nM); 1.13 ± 0.098 in assay [1] (1 nM); 1.16 ± 0.17 in assay [1] (5 nM); 1.15 ± 0.17 in assay [1] (10 nM); 0.6 ± 0.084 in assay [1] (50 nM); 0.316 ± 0.015 in assay [1] (100 nM). The surviving fraction in assay [1] (500 nM) amounted to 0.064 ± 0.0036; in assay [1] (1000 nM) it was 0.0623 ± 0.0015; in assay [2] (0.5 nM) it was 1.01 ± 0.034; in assay [2] (1 nM), 1.005 ± 0.0052; in assay [2] (5 nM) it was 1.01 ± 0.011; in assay [2] (10 nM), 0.996 ± 0.01. Also, the surviving fraction in assay [2] (50 nM) came out at 1.01 ± 0.013; in assay [2] (100 nM), 1.014 ± 0.0025; in assay [2] (500 nM) it was 1.02 ± 0.015; in assay [2] (1000 nM), 0.9937 ± 0.0058.

Turning to SCC90 HEADNECK, the surviving fraction in assay [1] (0.5 nM) turned out to be 1.08 ± 0.089; in assay [1] (1 nM), 1.08 ± 0.071; in assay [1] (5 nM), 1.12 ± 0.1; in assay [1] (10 nM) it was 1.16 ± 0.077; in assay [1] (50 nM) it was 0.225 ± 0.08; in assay [1] (100 nM), 0.155 ± 0.047. Besides, the surviving fraction came out at 0.0307 ± 0.0061 in assay [1] (500 nM); 0.0383 ± 0.0015 in assay [1] (1000 nM); 0.893 ± 0.093 in assay [2] (0.5 nM); 0.91 ± 0.076 in assay [2] (1 nM); 1.04 ± 0.11 in assay [2] (5 nM); 0.942 ± 0.1 in assay [2] (10 nM). Besides, the surviving fraction worked out at 1.17 ± 0.2 in assay [2] (50 nM), 1.03 ± 0.13 in assay [2] (100 nM), 0.86 ± 0.054 in assay [2] (500 nM) and 0.925 ± 0.099 in assay [2] (1000 nM).

As for MDAMB157 BREAST, the surviving fraction in assay [1] (0.5 nM) is 0.999 ± 0.11; in assay [1] (1 nM), 0.958 ± 0.067; in assay [1] (5 nM) it was 0.941 ± 0.059; in assay [1] (10 nM), 1.11 ± 0.043; in assay [1] (50 nM) it was 0.575 ± 0.12; in assay [1] (100 nM), 0.266 ± 0.06. Also, the surviving fraction in assay [1] (500 nM) was 0.258 ± 0.043; in assay [1] (1000 nM), 0.191 ± 0.01; in assay [2] (0.5 nM), 0.935 ± 0.093; in assay [2] (1 nM), 0.954 ± 0.071; in assay [2] (5 nM), 0.933 ± 0.049; in assay [2] (10 nM), 1.01 ± 0.079. The surviving fraction in assay [2] (50 nM) is 0.927 ± 0.077; in assay [2] (100 nM) it was 0.952 ± 0.071; in assay [2] (500 nM) it was 0.853 ± 0.044; in assay [2] (1000 nM), 0.866 ± 0.097.
